{
  "source": "patent US20100284985A1",
  "about": "“Composition” (Danisco A/S, priority 2007, published 2010)",
  "test_in_all_cases": "MIC assay, LAE",
  "key": {"[1]": {"tested_on": "Clostridium sporogenes DCS 808", "type": "cell-based", "experimental": "(§1) The Minimal Inhibition Concentration Assay (MIC) is a 96 well liquid based assay developed for a semi-automated assessment system and performed essentially as described in (7). […] From an overnight culture […] of each strain was inoculated in one well corresponding to an approximate inoculation density of 10^3-10^4 cells/well. Media used were CASO, MRS and YM (Appendix 1). Strains were incubated at 20° C., 25° C., 37° C. and under aerobic/anaerobic conditions depending on the preferred conditions for the particular strain (Appendix 1). At time zero, after adding the AM, the optical density (O.D.) of the bacterial culture is measured at 620 nm and then again after 24 hours. […] MIC is defined as the lowest concentration of the AM that will inhibit measurable growth. A bacteriostatic effect is defined as the OD620 at 24 h being less than or equal to 20% of the growth control."}, "Pichia anomala DCS 603": {"tested_on": "Pichia anomala DCS 603", "type": "cell-based", "experimental": "as §1"}, "[2]": {"tested_on": "Clostridium algidicarnis DCS 563", "type": "cell-based", "experimental": "as §1"}, "[3]": {"tested_on": "Clostridium sporogenes DCS 812", "type": "cell-based", "experimental": "as §1"}, "[4]": {"tested_on": "Brochothrix thermosphacta DCS 780", "type": "cell-based", "experimental": "as §1"}, "Candida pulcherrima H117": {"tested_on": "Candida pulcherrima H117", "type": "cell-based", "details": "ppm of the active component", "experimental": "as §1"}, "[5]": {"tested_on": "Debaryomyces hansenii DCS 605", "type": "cell-based", "experimental": "as §1"}, "[6]": {"tested_on": "Bacillus licheniformis DCS 561", "type": "cell-based", "experimental": "as §1"}, "[7]": {"tested_on": "Salmonella typhimurium DCS 218", "type": "cell-based", "details": "ppm of the active component", "experimental": "as §1"}, "[8]": {"tested_on": "Clostridium sporogenes (spores) DCS 808sp", "type": "cell-based", "details": "ppm of the active component", "experimental": "as §1"}, "Hafnia alvei DCS 613": {"tested_on": "Hafnia alvei DCS 613", "type": "cell-based", "experimental": "as §1"}, "Bacillus cereus DCS 500": {"tested_on": "Bacillus cereus DCS 500", "type": "cell-based", "experimental": "as §1"}, "[9]": {"tested_on": "Listeria monocytogenes DCS 490", "type": "cell-based", "experimental": "as §1"}, "[10]": {"tested_on": "Clostridium sporogenes (spores) DCS 812sp", "type": "cell-based", "details": "ppm of the active component", "experimental": "as §1"}, "Leuconostoc spp. DCS 947": {"tested_on": "Leuconostoc spp. DCS 947", "type": "cell-based", "details": "ppm of the active component", "experimental": "as §1"}, "[11]": {"tested_on": "Candida tropicalis DCS 604", "type": "cell-based", "experimental": "as §1"}, "[12]": {"tested_on": "Bacillus weihenstephanensis DCS 565", "type": "cell-based", "experimental": "as §1"}, "[13]": {"tested_on": "Clostridium sporogenes DCS 541", "type": "cell-based", "experimental": "as §1"}, "[14]": {"tested_on": "Lactobacillus fermentum DCS 573", "type": "cell-based", "experimental": "as §1"}, "[15]": {"tested_on": "Lactobacilllus curvatus DCS 609", "type": "cell-based, Lactobacillus curvatus", "details": "Latilactobacillus curvatus, DCS609, ppm of the active component", "experimental": "as §1"}, "[16]": {"details": "Clostridium sporogenes, DCS808, ppm of the active component"}, "[17]": {"details": "Hansenula anomala, DCS603, ppm of the active component"}, "[18]": {"details": "Clostridium algidicarnis, DCS563, ppm of the active component"}, "[19]": {"details": "Clostridium sporogenes, DCS812, ppm of the active component"}, "[20]": {"details": "Brochothrix thermosphacta, DCS780, ppm of the active component"}, "[21]": {"details": "Debaryomyces hansenii, DCS605, ppm of the active component"}, "[22]": {"details": "Bacillus licheniformis, DCS561, ppm of the active component"}, "[23]": {"details": "Salmonella enterica, TYPHIMURIUM"}, "[24]": {"details": "Hafnia alvei, DCS613, ppm of the active component"}, "[25]": {"details": "Bacillus cereus, DCS500, ppm of the active component"}, "[26]": {"details": "Listeria monocytogenes, DCS490, ppm of the active component"}, "[27]": {"details": "Candida tropicalis, DCS604, ppm of the active component"}, "[28]": {"details": "Bacillus mycoides, DCS565, ppm of the active component"}, "[29]": {"details": "Clostridium sporogenes, DCS541, ppm of the active component"}},
  "data": [
    {"smiles": "CCCCCCCCCCCC(=O)N[C@@H](CCCNC(=N)N)C(=O)OCC.Cl", "note": "[LAE, N^α-Lauroyl-L-arginine ethyl ester monohydrochloride]", "values": [
      {"measurement": "MBC", "setting": "[1]; [16]", "value": 9.7, "unit": "µg/mL"},
      {"measurement": "MIC", "setting": "[1]; [16]", "value": 9.7, "unit": "µg/mL"},
      {"measurement": "increased lag phase", "setting": "[1]; ppm of the active component", "value": 9.7, "unit": "ppm"},
      {"measurement": "MBC", "setting": "Pichia anomala DCS 603; [17]", "value": 111, "unit": "µg/mL"},
      {"measurement": "MIC", "setting": "Pichia anomala DCS 603; [17]", "value": 73.8, "unit": "µg/mL"},
      {"measurement": "increased lag phase", "setting": "Pichia anomala DCS 603; ppm of the active component", "value": 32.8, "unit": "ppm"},
      {"measurement": "MBC", "setting": "[2]; [18]", "value": 14.9, "unit": "µg/mL"},
      {"measurement": "MIC", "setting": "[2]; [18]", "value": 9.7, "unit": "µg/mL"},
      {"measurement": "increased lag phase", "setting": "[2]; ppm of the active component", "value": 6.5, "unit": "ppm"},
      {"measurement": "MBC", "setting": "[3]; [19]", "value": 9.7, "unit": "µg/mL"},
      {"measurement": "MIC", "setting": "[3]; [19]", "value": 9.7, "unit": "µg/mL"},
      {"measurement": "increased lag phase", "setting": "[3]; ppm of the active component", "value": 9.7, "unit": "ppm"},
      {"measurement": "MBC", "setting": "[4]; [20]", "value": 9.7, "unit": "µg/mL"},
      {"measurement": "MIC", "setting": "[4]; [20]", "value": 8.1, "unit": "µg/mL"},
      {"measurement": "increased lag phase", "setting": "[4]; ppm of the active component", "value": 4.3, "unit": "ppm"},
      {"measurement": "MBC", "setting": "Candida pulcherrima H117; Metschnikowia pulcherrima", "value": 14.6, "unit": "µg/mL"},
      {"measurement": "MIC", "setting": "Candida pulcherrima H117; Metschnikowia pulcherrima", "value": 9.7, "unit": "µg/mL"},
      {"measurement": "increased lag phase", "setting": "Candida pulcherrima H117", "value": 6.5, "unit": "ppm"},
      {"measurement": "MBC", "setting": "[5]; [21]", "value": 4.3, "unit": "µg/mL"},
      {"measurement": "MIC", "setting": "[5]; [21]", "value": 4.3, "unit": "µg/mL"},
      {"measurement": "increased lag phase", "setting": "[5]; ppm of the active component", "value": 4.3, "unit": "ppm"},
      {"measurement": "MBC", "setting": "[6]; [22]", "value": 14.6, "unit": "µg/mL"},
      {"measurement": "MIC", "setting": "[6]; [22]", "value": 14.6, "unit": "µg/mL"},
      {"measurement": "increased lag phase", "setting": "[6]; ppm of the active component", "value": 4.3, "unit": "ppm"},
      {"measurement": "MBC", "setting": "[7]; [23]", "value": 49.2, "unit": "µg/mL"},
      {"measurement": "MIC", "setting": "[7]; [23]", "value": 32.8, "unit": "µg/mL"},
      {"measurement": "increased lag phase", "setting": "[7]", "value": 12.1, "unit": "ppm"},
      {"measurement": "MBC", "setting": "[8]; Clostridium sporogenes", "value": 18.3, "unit": "µg/mL"},
      {"measurement": "MIC", "setting": "[8]; Clostridium sporogenes", "value": 8.1, "unit": "µg/mL"},
      {"measurement": "increased lag phase", "setting": "[8]", "value": 8.1, "unit": "ppm"},
      {"measurement": "MBC", "setting": "Hafnia alvei DCS 613; [24]", "value": 27.4, "unit": "µg/mL"},
      {"measurement": "MIC", "setting": "Hafnia alvei DCS 613; [24]", "value": 21.9, "unit": "µg/mL"},
      {"measurement": "increased lag phase", "setting": "Hafnia alvei DCS 613; ppm of the active component", "value": 10.5, "unit": "ppm"},
      {"measurement": "MBC", "setting": "Bacillus cereus DCS 500; [25]", "value": 14.6, "unit": "µg/mL"},
      {"measurement": "MIC", "setting": "Bacillus cereus DCS 500; [25]", "value": 12.1, "unit": "µg/mL"},
      {"measurement": "increased lag phase", "setting": "Bacillus cereus DCS 500; ppm of the active component", "value": 6.5, "unit": "ppm"},
      {"measurement": "MBC", "setting": "[9]; [26]", "value": 12.2, "unit": "µg/mL"},
      {"measurement": "MIC", "setting": "[9]; [26]", "value": 12.1, "unit": "µg/mL"},
      {"measurement": "increased lag phase", "setting": "[9]; ppm of the active component", "value": 8.1, "unit": "ppm"},
      {"measurement": "MBC", "setting": "[10]; Clostridium sporogenes", "value": 8.1, "unit": "µg/mL"},
      {"measurement": "MIC", "setting": "[10]; Clostridium sporogenes", "value": 4.3, "unit": "µg/mL"},
      {"measurement": "increased lag phase", "setting": "[10]", "value": 4.3, "unit": "ppm"},
      {"measurement": "MBC", "setting": "Leuconostoc spp. DCS 947; Leuconostoc", "value": "> 166", "unit": "µg/mL"},
      {"measurement": "MIC", "setting": "Leuconostoc spp. DCS 947; Leuconostoc", "value": 32.8, "unit": "µg/mL"},
      {"measurement": "increased lag phase", "setting": "Leuconostoc spp. DCS 947", "value": 32.8, "unit": "ppm"},
      {"measurement": "MBC", "setting": "[11]; [27]", "value": 4.3, "unit": "µg/mL"},
      {"measurement": "MIC", "setting": "[11]; [27]", "value": 4.3, "unit": "µg/mL"},
      {"measurement": "increased lag phase", "setting": "[11]; ppm of the active component", "value": 4.3, "unit": "ppm"},
      {"measurement": "MBC", "setting": "[12]; [28]", "value": 14.6, "unit": "µg/mL"},
      {"measurement": "MIC", "setting": "[12]; [28]", "value": 14.6, "unit": "µg/mL"},
      {"measurement": "increased lag phase", "setting": "[12]; ppm of the active component", "value": 10.5, "unit": "ppm"},
      {"measurement": "MBC", "setting": "[13]; [29]", "value": 9.7, "unit": "µg/mL"},
      {"measurement": "MIC", "setting": "[13]; [29]", "value": 9.7, "unit": "µg/mL"},
      {"measurement": "increased lag phase", "setting": "[13]; ppm of the active component", "value": 9.7, "unit": "ppm"},
      {"measurement": "MBC", "setting": "[14]; DCS573, ppm of the active component", "value": "> 166", "unit": "µg/mL"},
      {"measurement": "MIC", "setting": "[14]; Limosilactobacillus reuteri, DCS573, ppm of the active component", "value": 73.8, "unit": "µg/mL"},
      {"measurement": "increased lag phase", "setting": "[14]; ppm of the active component", "value": 73.8, "unit": "ppm"},
      {"measurement": "MBC", "setting": "[15]", "value": "> 166", "unit": "µg/mL"},
      {"measurement": "MIC", "setting": "[15]", "value": 32.8, "unit": "µg/mL"}
    ]}
  ]
}
